The values below are quoted from earlier work in publication PMC9781020, “Anti-Mycobacterial N-(2-Arylethyl)quinolin-3-amines Inspired by Marine Sponge-Derived Alkaloid” (Molecules, 2022).

In general, MIC refers to the smallest concentration in the dilution series that meets the test's criterion for growth inhibition.

The data set deals with drug-sensitive M. tuberculosis H37Rv and extensively drug-resistant M. tuberculosis strains. The settings on record: cited from earlier work.

As for `COC1=Cc2ccnc3c(NCCc4ccccc4)cnc(c23)C1=O` [Compound 1, 3-(phenethylamino)demethyl(oxy)aaptamine, reference compound], the MIC is 1.5 to 6.0 µM.
